Laboratory results as given in ChEMBL document CHEMBL3351798, “Discovery of the CCR1 antagonist, BMS-817399, for the treatment of rheumatoid arthritis” (J Med Chem, 2014).

Assays:
[1] = target: T1, C-C chemokine receptor type 1 (Homo sapiens, UniProt P32246); assay: Displacement of [125I]MIP-1alpha from CCR1 in human THP1 cells; format: cell-based, THP-1
T1 sequence (P32246 whole entry): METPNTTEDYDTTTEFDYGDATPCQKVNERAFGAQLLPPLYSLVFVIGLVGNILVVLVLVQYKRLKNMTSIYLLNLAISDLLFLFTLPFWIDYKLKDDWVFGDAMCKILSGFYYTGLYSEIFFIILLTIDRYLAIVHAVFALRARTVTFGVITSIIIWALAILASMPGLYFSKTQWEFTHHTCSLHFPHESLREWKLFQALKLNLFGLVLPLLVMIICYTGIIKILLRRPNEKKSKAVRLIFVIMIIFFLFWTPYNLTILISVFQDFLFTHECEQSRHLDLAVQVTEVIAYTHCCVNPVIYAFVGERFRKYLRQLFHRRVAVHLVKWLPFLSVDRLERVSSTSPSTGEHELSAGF

[2] = target: T2, Nuclear receptor subfamily 1 group I member 2 (Homo sapiens, UniProt O75469); assay: Transactivation of human full-length PXR transfected in human HepG2 cells after 24 hrs by luciferase reporter gene assay; format: cell-based; details: for EC20: human, hepg2, 24 h
T2 sequence (O75469 whole entry): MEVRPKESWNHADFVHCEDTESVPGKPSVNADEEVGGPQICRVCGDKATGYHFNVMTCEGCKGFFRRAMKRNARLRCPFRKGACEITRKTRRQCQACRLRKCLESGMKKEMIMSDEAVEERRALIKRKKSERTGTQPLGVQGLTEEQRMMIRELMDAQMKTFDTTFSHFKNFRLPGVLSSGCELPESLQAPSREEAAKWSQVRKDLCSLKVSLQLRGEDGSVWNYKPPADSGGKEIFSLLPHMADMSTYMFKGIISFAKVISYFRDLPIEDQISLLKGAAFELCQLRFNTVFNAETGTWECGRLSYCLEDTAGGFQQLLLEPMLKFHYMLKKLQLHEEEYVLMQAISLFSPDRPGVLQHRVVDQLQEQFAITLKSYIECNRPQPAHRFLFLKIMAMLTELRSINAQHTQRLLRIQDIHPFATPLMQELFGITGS

[3] = Metabolic stability in human liver microsomes assessed as compound remaining at 3 uM after 60 mins by UV-LC/MS analysis; format: ADME; details: read-out: Stability
[4] = Metabolic stability in rat liver microsomes assessed as compound remaining at 3 uM after 60 mins by UV-LC/MS analysis; format: ADME; details: read-out: Stability
[5] = Metabolic stability in mouse liver microsomes assessed as compound remaining at 3 uM after 60 mins by UV-LC/MS analysis; format: ADME; details: read-out: Stability
[6] = Metabolic stability in human liver microsomes assessed as compound remaining at 0.5 uM after 60 mins by UV-LC/MS analysis; format: ADME; details: read-out: Stability
[7] = Metabolic stability in rat liver microsomes assessed as compound remaining at 0.5 uM after 60 mins by UV-LC/MS analysis; format: ADME; details: read-out: Stability
[8] = Metabolic stability in mouse liver microsomes assessed as compound remaining at 0.5 uM after 60 mins by UV-LC/MS analysis; format: ADME; details: read-out: Stability

IC50 [1]	EC50 [2]	remaining at 1 h, 3 µM [3]	remaining at 1 h, 3 µM [4]	remaining at 1 h, 3 µM [5]	EC20 [2]	remaining at 1 h, 0.5 µM [6]	remaining at 1 h, 0.5 µM [7]	remaining at 1 h, 0.5 µM [8]	Compound
2 nM	> 50000 nM	76%	75%	86%					CC(C)[C@@H](NC(=O)N[C@@H]1CC[C@H](O)C1)C(=O)N1CC[C@](O)(c2ccc(Cl)cc2)C(C)(C)C1
3 nM		59%	85%	72%	5200 nM				CC[C@@H](C)NC(=O)N[C@@H](C(=O)N1CC[C@](O)(c2ccc(Cl)cc2)C(C)(C)C1)C(C)C
2 nM	25000 nM					91%	35%	74%	CC(C)[C@@H](NC(=O)CCC(C)(C)O)C(=O)N1CC[C@](O)(c2ccc(Cl)cc2)C(C)(C)C1
3 nM	19000 nM	92%	83%	100%					CC(C)[C@@H](NC(=O)N[C@H]1CC[C@@H](O)C1)C(=O)N1CC[C@](O)(c2ccc(Cl)cc2)C(C)(C)C1
20 nM									CC(C)[C@@H](NC(=O)Nc1ccccc1)C(=O)N1CC[C@](O)(c2ccc(Cl)cc2)C(C)(C)C1
3 nM	2300 nM	100%	84%	100%					CC(C)[C@@H](NC(=O)CC(C)(C)O)C(=O)N1CC[C@](O)(c2ccc(Cl)cc2)C(C)(C)C1
4 nM	> 50000 nM	100%	84%	100%					CC(C)[C@@H](NC(=O)N[C@@H]1CC[C@@H](O)C1)C(=O)N1CC[C@](O)(c2ccc(Cl)cc2)C(C)(C)C1
2 nM		65%	89%	87%	8700 nM				CC[C@H](C)NC(=O)N[C@@H](C(=O)N1CC[C@](O)(c2ccc(Cl)cc2)C(C)(C)C1)C(C)C
3 nM	5700 nM	99%	96%	100%					CC(C)[C@@H](NC(=O)N[C@H]1CC[C@H](O)C1)C(=O)N1CC[C@](O)(c2ccc(Cl)cc2)C(C)(C)C1
2 nM	> 25000 nM					88%	78%	86%	CC(C)[C@@H](NC(=O)NC[C@@H](C)O)C(=O)N1CC[C@](O)(c2ccc(Cl)cc2)C(C)(C)C1
1 nM		3%	1%	2%	2200 nM				CC(C)[C@@H](NC(=O)NCc1ccccc1)C(=O)N1CC[C@](O)(c2ccc(Cl)cc2)C(C)(C)C1
2 nM	7800 nM	87%	79%	85%					CC(C)[C@@H](NC(=O)C[C@@H](C)O)C(=O)N1CC[C@](O)(c2ccc(Cl)cc2)C(C)(C)C1
2 nM	> 25000 nM					88%	79%	95%	CC(C)[C@@H](NC(=O)NC[C@H](C)O)C(=O)N1CC[C@](O)(c2ccc(Cl)cc2)C(C)(C)C1
9 nM		2%	11%	19%	800 nM				CC(C)[C@@H](NC(=O)N1CCCC1)C(=O)N1CC[C@](O)(c2ccc(Cl)cc2)C(C)(C)C1
11 nM									CC(C)[C@@H](NC(=O)C[C@H](C)O)C(=O)N1CC[C@](O)(c2ccc(Cl)cc2)C(C)(C)C1
2 nM		77%	57%	68%	7100 nM				CC(C)[C@@H](NC(=O)NC1CCCC1)C(=O)N1CC[C@](O)(c2ccc(Cl)cc2)C(C)(C)C1
